In patent US12624034B2, “Non-covalent modifiers of AKT1 and uses thereof” (Terremoto Biosciences, Inc., priority 2023, dated 2026):
Where two headings read alike, the source gives them in different places.

Assays:
AKT1 WT = molecular target: T1, AKT1 WT (Homo sapiens, UniProt P31749); assay: Live cell AKT1 WT target engagement by NanoBRET competitive probe displacement in HEK293 cells; assay type: binding; settings: 2 h at 37° C., read-out: AKT1 WT IC50
T1 construct: expressed in transfected cells; host or cells: HEK293
T1 sequence (P31749 whole entry): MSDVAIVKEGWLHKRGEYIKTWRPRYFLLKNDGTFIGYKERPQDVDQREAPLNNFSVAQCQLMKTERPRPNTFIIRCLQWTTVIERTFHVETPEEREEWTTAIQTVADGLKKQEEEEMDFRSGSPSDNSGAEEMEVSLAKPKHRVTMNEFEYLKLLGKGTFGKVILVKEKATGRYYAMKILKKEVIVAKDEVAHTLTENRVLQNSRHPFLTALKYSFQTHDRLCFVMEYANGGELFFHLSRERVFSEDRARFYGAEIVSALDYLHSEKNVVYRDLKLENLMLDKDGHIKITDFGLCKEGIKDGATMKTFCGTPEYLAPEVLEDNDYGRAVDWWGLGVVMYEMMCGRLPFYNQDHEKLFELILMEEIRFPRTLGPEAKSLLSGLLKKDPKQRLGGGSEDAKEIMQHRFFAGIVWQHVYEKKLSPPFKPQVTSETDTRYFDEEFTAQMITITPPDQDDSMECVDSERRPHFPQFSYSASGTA
Experimental: (§1) Determining live cell AKT1 E17K, AKT1 WT, and AKT2 target engagement by NanoBRET competitive probe displacement. […] Briefly, HEK293 cells were transfected with plasmids encoding kinase-NanoLuciferase fusion proteins overnight. Cells were then treated with serial dilutions of compound and an ˜EC50 concentration of fluorescently-tagged ATP-competitive tracer (Promega). After incubation for 2 h at 37° C., luciferase substrate and extracellular luciferase inhibitor were added to all wells, and luminescent intensity at 460 nm and 600 nm were measured on a multimode plate-reader. The ratio of E600/E460 was calculated to give the tracer engagement signal (BRET). IC50 values were calculated by fitting BRET values to a log(inhibitor) vs. response Hill equation.

AKT2 = molecular target: T2, AKT2 (Homo sapiens, UniProt P31751); assay: Live cell AKT2 target engagement by NanoBRET competitive probe displacement in HEK293 cells; assay type: binding; settings: 2 h at 37° C., read-out: AKT2 IC50
T2 construct: expressed in transfected cells; host or cells: HEK293
T2 sequence (P31751 whole entry): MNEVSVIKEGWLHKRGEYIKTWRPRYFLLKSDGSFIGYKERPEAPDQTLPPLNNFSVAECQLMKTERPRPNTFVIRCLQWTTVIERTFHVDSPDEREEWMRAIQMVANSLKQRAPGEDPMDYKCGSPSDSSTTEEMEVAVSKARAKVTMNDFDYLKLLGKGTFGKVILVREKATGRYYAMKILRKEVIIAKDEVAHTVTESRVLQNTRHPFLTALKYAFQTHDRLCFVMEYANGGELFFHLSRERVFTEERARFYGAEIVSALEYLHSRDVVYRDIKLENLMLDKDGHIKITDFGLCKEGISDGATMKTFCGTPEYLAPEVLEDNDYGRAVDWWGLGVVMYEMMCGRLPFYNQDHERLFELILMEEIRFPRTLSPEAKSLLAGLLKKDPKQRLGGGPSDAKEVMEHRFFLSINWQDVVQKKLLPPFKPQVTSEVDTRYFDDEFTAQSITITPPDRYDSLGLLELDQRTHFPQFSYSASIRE
Experimental: as §1

[1] = NanoBRET live cell target engagement, HEK293 cells
[2] = NanoBRET competitive probe displacement, live HEK293 cells

Structure (SMILES)	IC50 (AKT1 WT; [1])	IC50 (AKT2; [1])	IC50 (AKT1 WT; [2])	IC50 (AKT2; [2])
CN(C)Cc1ncccc1C(=O)N[C@H]1CCc2cc(-n3c(-c4cccnc4N)nc4ccc(-n5cccn5)nc43)ccc21 [Compound 104]	317 nM	> 10000 nM		
Cc1ccc(C(=O)N[C@H]2CCc3cc(-n4c(-c5cccnc5N)nc5ccc(-n6ncnc6C)nc54)ccc32)cn1 [Compound 418, (S)—N-(5-(2-(2-aminopyridin-3-yl)-5-(5-methyl-1H-1,2,4-triazol-1-yl)-3H-imidazo[4,5-b]pyridin-3-yl)-2,3-dihydro-1H-inden-1-yl)-6-methylnicotinamide]			76 nM	2680 nM
Nc1ncccc1-c1nc2ccc(-n3cccn3)nc2n1-c1ccc2c(c1)CC[C@@H]2N1Cc2ccncc2C1 [Compound 494]			199 nM	6860 nM
Nc1ncccc1-c1nc2ccc(-n3cccn3)nc2n1-c1ccc2c(c1)CC[C@@H]2NC(=O)c1cccnc1OC(F)(F)F [Compound 78]	106 nM	1910 nM		
Cn1ccc(N2CCC(N[C@@H]3c4ccc(-n5c(-c6cccnc6N)nc6ccc(-n7cccn7)nc65)cc4CC3F)CC2)n1 (stereo partly shown) [Compound 519]			39.2 nM	1220 nM
Nc1ncccc1-c1nc2ccc(-n3cccn3)nc2n1-c1ccc2c(c1)CC[C@@H]2NC(=O)c1cccnc1C1CC1 [Compound 103]	25.2 nM	316 nM		
Nc1ncccc1-c1nc2ccc(-n3cccn3)nc2n1-c1ccc2c(c1)CC[C@@H]2NC1CCN(C(=O)C2CC2)CC1F (stereo partly shown) [Compound 444]			23.5 nM	499 nM
Nc1ncccc1-c1nc2ccc(N3CCOCC3)nc2n1-c1ccc2c(c1)CC[C@@H]2NC(=O)c1ccc(C(F)F)nc1 [Compound 136]	19.8 nM	284 nM		
Nc1ncccc1-c1nc2ccc(-n3cccn3)nc2n1-c1ccc2c(c1)CC[C@@H]2NCc1ccncc1 [Compound 142]	43.8 nM	886 nM		
Nc1ncccc1-c1nc2ccc(-n3nccn3)nc2n1-c1ccc2c(c1)CC[C@@H]2NCc1ccc(C(F)F)nc1 [Compound 234]	168 nM	4550 nM		
Cn1ccc(Oc2ccc3nc(-c4cccnc4N)n(-c4ccc5c(c4)CC[C@@H]5NC(=O)c4cnc(C(F)F)s4)c3n2)n1 [Compound 558]			71.5 nM	7510 nM
Cc1coc(-c2ccc3nc(-c4cccnc4N)n(-c4ccc5c(c4)CC[C@@H]5n4ccnn4)c3n2)n1 [Compound 245, (S)-3-(3-(1-(1H-1,2,3-triazol-1-yl)-2,3-dihydro-1H-inden-5-yl)-5-(4-methyloxazol-2-yl)-3H-imidazo[4,5-b]pyridin-2-yl)pyridin-2-amine]	41.8 nM	1960 nM		
Nc1ncccc1-c1nc2ccc(-n3cccn3)nc2n1-c1ccc2c(c1)CC[C@@H]2NC(=O)c1ccccc1F [Compound 333]	6.14 nM	58.7 nM		
Cc1ncccc1C(=O)N[C@H]1CCc2cc(-n3c(-c4cccnc4N)nc4c(F)cc(-n5cccn5)nc43)ccc21 [Compound 212]	57.8 nM	158 nM		
Cc1cn([C@H]2CCc3cc(-n4c(-c5cccnc5N)nc5ccc(-n6cccn6)nc54)ccc32)nn1 [Compound 304]	80.8 nM	4750 nM		
CCc1ccc(C(=O)N[C@H]2CCc3cc(-n4c(-c5cccnc5N)nc5ccc(-n6cccn6)nc54)ccc32)cn1 [Compound 80]	8.65 nM	28.4 nM		
Nc1ncccc1-c1nc2ccc(-n3cccn3)nc2n1-c1ccc2c(c1)CC[C@@H]2NC1CCN(C(=O)C2COC2)CC1 [Compound 423]			188 nM	2620 nM
COc1ncccc1C(=O)N[C@H]1CCc2cc(-n3c(-c4cccnc4N)nc4ccc(-n5cccn5)nc43)ccc21 [Compound 128]	34.4 nM	442 nM		
CC#Cc1ccc2nc(-c3cccnc3N)n(-c3ccc4c(c3)CC[C@@H]4NC(=O)c3ccc(C(F)F)nc3)c2n1 [Compound 405]			46.2 nM	1580 nM
Nc1ncccc1-c1nc2ccc(-c3ncco3)nc2n1-c1ccc2c(c1)CC[C@@H]2n1ccnn1 [Compound 246]	65.5 nM	2370 nM		
Nc1ncccc1-c1nc2ccc(-n3cccn3)nc2n1-c1ccc2c(c1)CC[C@@H]2NC1CC2(C1)CN(c1ccccn1)C2 [Compound 448]			47.8 nM	1760 nM
Nc1ncccc1-c1nc2ccc(-n3cccn3)nc2n1-c1ccc2c(c1)CC[C@@H]2NC(=O)Nc1ccccc1 [Compound 133]	76.2 nM	1340 nM		
Cn1nc(F)cc1C(=O)N[C@H]1CCc2cc(-n3c(-c4cccnc4N)nc4ccc(-n5cccn5)nc43)ccc21 [Compound 396]			14.7 nM	250 nM

Results, then the compound that gave them:

IC50 (AKT1 WT; [1])	IC50 (AKT2; [1])	IC50 (AKT1 WT; [2])	IC50 (AKT2; [2])	Structure (SMILES)
		421 nM	3550 nM	CN(C)CC#Cc1ccc2nc(-c3cccnc3N)n(-c3ccc4c(c3)CC[C@@H]4NC(=O)c3ccc(C(F)F)nc3)c2n1 [Compound 407]
20 nM	650 nM			Nc1ncccc1-c1nc2ccc(-n3cccn3)nc2n1-c1ccc2c(c1)CC[C@@H]2n1ccnn1 [Compound 188]
146 nM	1400 nM			Cn1nccc1Cc1nncn1[C@H]1CCc2cc(-n3c(-c4cccnc4N)nc4ccc(-n5cccn5)nc43)ccc21 [Compound 222]
21.9 nM	83.5 nM			Nc1ncccc1-c1nc2ccc(-n3cccn3)nc2n1-c1ccc2c(c1)CC[C@@H]2NC(=O)c1cnc(C(F)F)cc1F [Compound 97]
36.3 nM	169 nM			CN(C)Cc1ccc(C(=O)N[C@H]2CCc3cc(-n4c(-c5cccnc5N)nc5ccc(-n6cccn6)nc54)ccc32)cn1 [Compound 85]
		57.7 nM	1300 nM	Nc1ncccc1-c1nc2ccc(-c3ccn(C(F)F)n3)nc2n1-c1ccc2c(c1)CC[C@@H]2NC1CCN(C(=O)C2CC2)CC1 [Compound 434]
43.6 nM	520 nM			Cn1nccc1C(=O)N[C@H]1CCc2cc(-n3c(-c4cccnc4N)nc4ccc(-n5cccn5)nc43)ccc21 [Compound 144]
		> 1000 nM	> 10000 nM	Nc1ncccc1-c1nc2ccc(-n3cccn3)nc2n1-c1ccc2c(c1)CC[C@@H]2NC1CC2(CCCN2c2ccccn2)C1 (stereo partly shown) [Compound 465]
		92.6 nM	5410 nM	Cc1oncc1C(=O)N1CCC(N[C@H]2CCc3cc(-n4c(-c5cccnc5N)nc5ccc(-n6cccn6)nc54)ccc32)CC1 [Compound 489]
		7.04 nM	344 nM	COC1CN(c2ccn(-c3ccc4nc(-c5cccnc5N)n(-c5ccc6c(c5)CC(F)[C@@H]6NC5CCN(C(=O)C6CC6)CC5)c4n3)n2)C1 (stereo partly shown) [Compound 553]
459 nM	> 10000 nM			Nc1ncccc1-c1nc2ccc(-n3cccn3)nc2n1-c1ccc2c(c1)CC[C@@H]2NC1CCS(=O)(=O)CC1 [Compound 89]
17.9 nM	181 nM			Nc1ncccc1-c1nc2ccc(-n3cccn3)nc2n1-c1ccc2c(c1)CC[C@@H]2NC(=O)c1ccc2cccn2c1 [Compound 328]
		12.1 nM	452 nM	COc1ccn(-c2ccc3nc(-c4cccnc4N)n(-c4ccc5c(c4)CC[C@@H]5NC4CCN(C(=O)C5CC5)CC4F)c3n2)n1 (stereo partly shown) [Compound 515]
12.9 nM	73.2 nM			CNC(=O)c1cccc(C(=O)N[C@H]2CCc3cc(-n4c(-c5cccnc5N)nc5ccc(-n6cccn6)nc54)ccc32)c1 [Compound 292]
38.8 nM	1790 nM			Cc1ncccc1C(=O)N[C@H]1CCc2cc(-n3c(-c4cccnc4N)nc4ccc(-n5nccn5)nc43)ccc21 [Compound 93]
